Assay results: patent publication US20110009332A1, “Therapeutic Treatment Of Wounds” (SOUTHWEST RESEARCH INSTITUTE, priority 2009, published 2011)
Where a SMILES comes first, the peptide text is derived from it. The star is where a group is joined. Cbz = O=C(OCc1ccccc1)*; OtBu = CC(C)(C)O*

Test system: TGF-β1
Assay: TGF-β1 gene expression (qPCR, normalized over 18S) in human dermal fibroblasts
Type: cell-based
Experimental: An examination of gene expression of TFG-β1 was conducted using a number of proteasome inhibitors including, proteasome inhibitor-1, curcumin, MG-132 and bortezomib. Human neonatal dermal fibroblasts (AllCells, Catalog No. HN006001) were maintained in Dulbecco's modified Eagle's medium (DMEM) supplemented with 10% fetal bovine serum. Early passage cells were plated at 2×10^4 cells/cm^2 and grown in humidified 5% CO2 at 37° C. for 24 hours. Spent media was replaced the following day with assay media including Proteasome inhibitor-1 was added in DMEM at 1 μM and 0.1 μM. Untreated cells were used as the control group. For the human osteogenesis PCR array, the experimental group was treated only at 1 μM. In addition, in separate trials, spent media was replace by assay media of curcumin added in DMEM at 10 μM and 100 μM, MG-132 in DMEM at 0.1 μM and 1 μM, and bortezomib in DMEM at 0.1 μm and 1 μM.
Phenol-chloroform extraction was performed to isolate the total RNA for real time polymerase chain reaction array. More specifically, the total RNA was prepared using TRI REAGENT (Ambion, product number 9738), wherein the total RNA was obtained from the human neonatal dermal fibroblasts. Note that isolation was performed as per the instructions provided with the TRI REAGENT. The RNA was used for subsequent quantitative polymerase chain reaction (qPRC) gene expression of TFG-β1 measured using hydrolysis probes (TAQMAN probes available from Applied Biosystems) as described further below.
Concentration and integrity of the obtained total RNA was assessed by absorbance in a spectrophotometer at 260 nm and 280 nm and by electrophoresis in 1% agarose with formaldehyde loading dye. For TAQMAN gene expression assays, cDNA was synthesized from 2 μg of total RNA using the High Capacity cDNA Reverse Transcription Kit (Applied Biosystems, product number 4368814), again following the protocol supplied with the kit. The resulting cDNA was diluted 1:10.
For TAQMAN gene expression, gene-specific fluorescent labeled TAQMAN primers for FAM-TFG-β1 (Applied Biosystems, product number Hs00998130.m1) and TAQMAN reference VIC-18S ribosomal RNA (Applied Biosystems, product number 4310893E) were used to target the gene of interest. A cocktail of universal master mix (Applied Biosystems, product number 4369016) was prepared individually for both set of primers which contained Taq Polymerase, dNTPs, and buffer. Template cDNA's were added separately to respective individual wells in triplicate samples. PCR was performed on StepOne Plus Real Time System instrument (Applied Biosystems). The amplification program consisted of 1 cycle of 95° C. with 10 minute hold (hot start) followed by 50 cycles of 95° C. with 15 second annealing hold and 1 minute 60° C. specified acquisition hold.
For human osteogenisis PCR array, total RNA was prepared using silica matrix purification using RNEASY MINI KIT (Qiagen, product number 74101) according to the manufacturer's recommendations. cDNA was synthesized from 1 μg of purified DNA-free RNA accordingly to RT^2First Strand Kit (SABiosciences, C-03). The resulting cDNA was diluted 1:30 and amplified. The procedure for the PCR array using real-time PCR is based on the RT^2 Profiler PCR array system instructions for Human Osteogenesis (SABiosciences, product number PAHS-026C). A cocktail reaction mix was setup as recommended by the PCR manufacturer (SABiosceiences, product number PA-012). PCR was performed using the same temperature parameters as used with the StepOne Plus Real Time System instrument. The Ct value of endogenous reference gene (i.e. 18s) was used to control for input RNA and then used to normalize target gene (i.e. TFG-β1) tested from the same cDNA sample ([…]), and then calibrated to an internal reference sample ([…]). Change in gene expression was determined by the expression 2̂-([…]). […]

[1] = 0.1 μM inhibitor, FIG. 30, non-treated 1.50 (MG132) / 1.43 (bortezomib)
[2] = 1 μM inhibitor, FIG. 30, non-treated 1.50 (MG132) / 1.43 (bortezomib)

Compound	TFG-β1/18 mRNA levels [1]	TFG-β1/18 mRNA levels [2]	other results
CC(C)C[C@@H](C=O)NC(=O)[C@H](CC(C)C)NC(=O)[C@H](CC(C)C)NC(=O)OCc1ccccc1 [MG132] (Cbz-Leu-Leu-Leu-aldehyde)	2.12 a.u.	1.49 a.u.	
CC[C@H](C)[C@H](NC(=O)OCc1ccccc1)C(=O)N[C@@H](CCC(=O)OC(C)(C)C)C(=O)N[C@@H](C)C(=O)N[C@H](C=O)CC(C)C [PS-1, Z-Ile-Glu(OBu^t)-Ala-Leu-H] (Cbz-IE(OtBu)AL-aldehyde)			TFG-β1/18 mRNA levels (0.1 μM PS-1, FIG. 28, nontreated 1.15, decrease relatively statistically insignificant): ~1.03 a.u.; TFG-β1/18 mRNA levels (1.0 μM PS-1, FIG. 28, nontreated 1.15, decrease relatively statistically insignificant): ~1.11 a.u.
CC(C)C[C@H](NC(=O)[C@H](Cc1ccccc1)NC(=O)c1cnccn1)B(O)O [bortezomib]	1.99 a.u.	1.97 a.u.	
COc1cc(/C=C/C(=O)CC(=O)/C=C/c2ccc(O)c(OC)c2)ccc1O [curcumin]			TFG-β1/18 mRNA levels (10 μM curcumin, FIG. 29, non-treated 1.15): 0.644 a.u.; TFG-β1/18 mRNA levels (100 μM curcumin, FIG. 29, non-treated 1.15): 1.53 a.u.
